Counter-ions that a name gives are not always drawn.
Legend:
Plasmin = Plasmin (Homo sapiens, UniProt P00747); assay: Inhibition of plasmin (TAMe hydrolysis); type: biochemical; conditions: TAMe substrate; read-out: Concentration for 50% inhibition (IC50), plasmin
Method: (§1) Inhibitory effects on the TAMe(N^α -tosyl-L-arginine methyl ester) hydrolytic activity of trypsin, plasmin, plasma kallikrein and thrombin were estimated by Hesterin's method modified by Roberts. Inhibition of the BAEe(N^α -benzoyl-L-arginine ethyl ester) hydrolytic activity of pancreas kallikrein was determined by Hesterin's method after incubation at 37° C. for 30 minutes in a 0.1M borate buffer, pH 8.0. Inhibitory effects on urokinase were determined by the chromotropic acid method after incubation of 60 iu of urokinase with 10 mM AGLMe(acetylglycyl-L-lysine methyl ester) at 37° C. for 30 minutes in a 0.06M phosphate buffer, pH 7.5, containing 0.09M NaCl. Inhibition of chymotrypsin was determined by Hesterin's method after incubation with 15 mM ATE (N^α -acetyl-L-tyrosine ethyl ester) for 30 minutes at 37° C. in a 0.1M borate buffer, pH 8.0.

Pancreas kallikrein = Pancreas kallikrein (Sus scrofa, UniProt P00752); assay: Inhibition of pancreas kallikrein (BAEe hydrolysis); type: biochemical; conditions: BAEe substrate, 37° C., 30 minutes, pH 8.0; read-out: Concentration for 50% inhibition (IC50), pancreas kallikrein
Method: as §1

Urokinase = Urokinase (Homo sapiens, UniProt P00749); assay: Inhibition of urokinase (AGLMe, chromotropic acid method); type: biochemical; conditions: 60 iu urokinase, 10 mM AGLMe, 37° C., 30 minutes, pH 7.5; read-out: Concentration for 50% inhibition (IC50), urokinase
Method: as §1

Trypsin = target: T1, Trypsin (Bos taurus, UniProt P00760); assay: Inhibition of trypsin (TAMe hydrolysis); type: biochemical; conditions: TAMe substrate; read-out: Concentration for 50% inhibition (IC50), trypsin
T1 sequence (P00760 24-246): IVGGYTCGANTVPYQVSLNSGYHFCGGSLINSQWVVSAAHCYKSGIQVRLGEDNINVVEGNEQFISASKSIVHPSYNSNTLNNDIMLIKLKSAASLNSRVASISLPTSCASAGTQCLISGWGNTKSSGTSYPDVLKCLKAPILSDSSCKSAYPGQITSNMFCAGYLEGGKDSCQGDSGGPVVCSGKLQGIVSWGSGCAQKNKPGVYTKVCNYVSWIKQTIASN
Method: as §1

Chymotrypsin = Chymotrypsin (Bos taurus, UniProt P00766); assay: Inhibition of chymotrypsin (ATE hydrolysis); type: biochemical; conditions: 15 mM ATE, 30 minutes, 37° C., pH 8.0; read-out: Concentration for 50% inhibition (IC50), chymotrypsin
Method: as §1

Plasma kallikrein = Plasma kallikrein (Homo sapiens, UniProt P03952); assay: Inhibition of plasma kallikrein (TAMe hydrolysis); type: biochemical; conditions: TAMe substrate; read-out: Concentration for 50% inhibition (IC50), plasma kallikrein
Method: as §1

Thrombin = Thrombin (Homo sapiens, UniProt P00734); assay: Inhibition of thrombin (TAMe hydrolysis); type: biochemical; conditions: TAMe substrate; read-out: Concentration for 50% inhibition (IC50), thrombin
Mast cells [1] = assay: Effects on histamine release from mast cells induced by compound 48/80; type: cell-based; conditions: Mast cell; 10 μg/ml test compound; compound 48/80 induced; read-out: Inhibition of histamine release
Method: After incubation for 20 minutes at 37° C., the suspension was cooled to 4° C., and released histamine was determined as described by Shore et al. All samples examined were recognized to cause no disturbance in the fluorometric assay.

[2] = test system: ileum of each sensitized guinea pig; assay: Schultz-Dale reaction; conditions: Cavia porcellus, read-out: Inhibition of contraction (Schultz-Dale reaction); for inhibition at 25 µg/mL: final conc. 25 μg/ml; for inhibition at 50 µg/mL: final conc. 50 μg/ml
Method: Male guinea pigs were sensitized with bovine serum albumin by Freund's complete adjuvant method. After a lapse of 10 days, the animals were sensitized once more as described above. After two more weeks, an ileum of each sensitized guinea pig was removed and used for experiment. The ileum was equipped in a magnus tube containing each test sample, and 500 μg of bovine serum albumin was added. The contraction of the ileum was determined.

guinea pigs ilea [3] = assay: Anti-histamine action; design: species or system guinea pig; conditions: Cavia porcellus, read-out: Anti-histamine effect inhibition of contraction; for inhibition at 25 µg/mL: final conc. 25 μg/ml; for inhibition at 50 µg/mL: final conc. 50 μg/ml
Description: (§2) Anti-acetylcholine and anti-histamine effects of the present compounds were examined using guinea pigs ilea by the usual method.

guinea pigs ilea [4] = assay: Anti-acetylcholine action; design: species or system guinea pig; conditions: Cavia porcellus, read-out: Anti-acetylcholine effect inhibition of contraction; for inhibition at 25 µg/mL: final conc. 25 μg/ml; for inhibition at 50 µg/mL: final conc. 50 μg/ml
Description: as §2

Mast cells [5] = conditions: Life Sciences 10, 805-812 (1971); Internal Medicine 42(6), 933 (1978); cited from earlier work

Plasmin, sequence (P00747 97-580 limits assumed, species assumed): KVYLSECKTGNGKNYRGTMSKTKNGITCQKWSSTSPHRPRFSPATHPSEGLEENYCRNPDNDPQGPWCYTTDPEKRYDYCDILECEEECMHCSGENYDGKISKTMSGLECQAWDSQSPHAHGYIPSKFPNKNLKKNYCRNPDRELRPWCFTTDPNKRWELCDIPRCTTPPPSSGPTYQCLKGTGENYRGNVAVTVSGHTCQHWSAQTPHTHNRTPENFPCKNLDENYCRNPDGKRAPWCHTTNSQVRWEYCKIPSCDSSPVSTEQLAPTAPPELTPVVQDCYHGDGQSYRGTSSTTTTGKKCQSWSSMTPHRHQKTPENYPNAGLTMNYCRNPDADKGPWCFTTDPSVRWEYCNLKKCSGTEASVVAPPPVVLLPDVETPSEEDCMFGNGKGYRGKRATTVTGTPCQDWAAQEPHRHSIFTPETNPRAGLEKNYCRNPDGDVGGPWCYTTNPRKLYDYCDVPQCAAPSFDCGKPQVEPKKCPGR
Pancreas kallikrein, sequence (P00752 15-246 limits assumed): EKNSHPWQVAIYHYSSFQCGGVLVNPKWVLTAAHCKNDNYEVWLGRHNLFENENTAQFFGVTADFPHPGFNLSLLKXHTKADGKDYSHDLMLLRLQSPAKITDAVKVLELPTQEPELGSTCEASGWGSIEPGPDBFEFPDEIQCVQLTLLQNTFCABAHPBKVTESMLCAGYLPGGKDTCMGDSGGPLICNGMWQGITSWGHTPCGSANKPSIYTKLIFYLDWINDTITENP
Plasma kallikrein, sequence (P03952 20-390 limits assumed, species assumed): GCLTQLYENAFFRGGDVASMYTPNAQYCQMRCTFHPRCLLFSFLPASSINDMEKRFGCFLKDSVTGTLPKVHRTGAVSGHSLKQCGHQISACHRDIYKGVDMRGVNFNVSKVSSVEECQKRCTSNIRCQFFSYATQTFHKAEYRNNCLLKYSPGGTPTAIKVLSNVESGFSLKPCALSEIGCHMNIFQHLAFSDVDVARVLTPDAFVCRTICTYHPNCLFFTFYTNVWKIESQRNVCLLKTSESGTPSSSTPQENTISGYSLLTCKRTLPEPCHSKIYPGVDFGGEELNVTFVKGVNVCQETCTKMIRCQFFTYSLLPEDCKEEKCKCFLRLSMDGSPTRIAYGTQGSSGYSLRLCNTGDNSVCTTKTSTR

Row | IC50 (Pancreas kallikrein) [µM] | IC50 (Urokinase) [µM] | IC50 (Chymotrypsin) [µM] | IC50 (Thrombin) [µM] | Compound | inhibition at 10 µg/mL (Mast cells [1]) [%] | inhibition at 25 µg/mL (guinea pigs ilea [3]) [%] | inhibition at 50 µg/mL (guinea pigs ilea [3]) [%] | other results
1 | 30 | 110 |  |  | N#Cc1ccccc1OC(=O)[C@H]1CC[C@H](CNC(=N)N)CC1 [Compound 21, 2'-Cyanophenyl trans-4-guanidinomethylcyclohexanecarboxylate hydrochloride] |  |  |  | IC50 (Plasmin): 200 µM
2 | 400 | 30 |  |  | Cc1ccc(C(C)C)c(OC(=O)[C@H]2CC[C@H](CNC(=N)N)CC2)c1 [Compound 13, 2'-iso-Propyl-5'-methylphenyl trans-4-guanidinomethylcyclohexanecarboxylatehydrochloride] |  |  |  | IC50 (Plasmin): 400 µM
3 | 90 | 160 | 12 | 160 | N=C(N)NC[C@H]1CC[C@H](C(=O)Oc2ccccc2Cl)CC1 [Compound 5, 2'-Chlorophenyl trans-4-guanidinomethylcyclohexanecarboxylate hydrochloride] |  |  |  | IC50 (Trypsin): 390 µM; IC50 (Plasma kallikrein): 300 µM
4 | 25 | 31 | 2.8 | 95 | N=C(N)NC[C@H]1CC[C@H](C(=O)Oc2ccc([N+](=O)[O-])cc2)CC1 [Compound 15, 4'-Nitrophenyl trans-4-guanidinomethylcyclohexanecarboxylate hydrochloride] |  |  |  | IC50 (Trypsin): 90 µM; IC50 (Plasma kallikrein): 300 µM
5 | 150 |  |  | 180 | N=C(N)NC[C@H]1CC[C@H](C(=O)Oc2ccc(Br)cc2)CC1 [Compound 6, 4'-Bromophenyl trans-4-guanidinomethylcyclohexanecarboxylate hydrochloride] |  |  |  | IC50 (Trypsin): 260 µM
6 |  |  |  |  | N=C(N)NC[C@H]1CC[C@H](C(=O)Oc2ccccc2)CC1 [Compound A, Phenyl trans4-guanidinomethylcyclohexanecarboxylate hydrochloride, reference compound] | 5 | 100 | 100 | inhibition at 25 µg/mL [2]: 0%; inhibition at 50 µg/mL [2]: 0%
7 |  |  |  |  | N=C(N)NC[C@H]1CC[C@H](C(=O)Oc2ccc(Cl)cc2)CC1 [Compound 10, 4'-Chlorophenyl trans-4-guanidinomethylcyclohexanecarboxylate hydrochloride] |  | 100 | 100 | inhibition at 25 µg/mL [2]: 100%; inhibition at 50 µg/mL [2]: 100%; inhibition at 25 µg/mL (guinea pigs ilea [4]): 89.8%; inhibition at 50 µg/mL (guinea pigs ilea [4]): 100%
8 |  |  |  |  | O=C(O)c1cc(=O)c2c(OCC(O)COc3cccc4oc(C(=O)O)cc(=O)c34)cccc2o1 [DSCG, Disodium cromoglycate, reference compound] | 10 | 0 | 0 | inhibitory effects on histamine release from mast cells (Mast cells [5]): has inhibitory effects on histamine release from mast cells
9 | 320 | 260 | 70 |  | Cc1ccc(OC(=O)[C@H]2CC[C@H](CNC(=N)N)CC2)cc1 [Compound 3, 4'-Methylphenyl trans-4-guanidinomethylcyclohexanecarboxylate hydrochloride] |  | 98 | 100 | inhibition at 25 µg/mL [2]: 83.3%; inhibition at 50 µg/mL [2]: 100%; inhibition at 25 µg/mL (guinea pigs ilea [4]): 100%; inhibition at 50 µg/mL (guinea pigs ilea [4]): 100%
10 | 20 | 50 | 6 | 230 | N=C(N)NC[C@H]1CC[C@H](C(=O)Oc2ccc3ccc(=O)oc3c2)CC1 [Compound 24, 7'-(2'-Oxochromenyl)trans-4-guanidinomethylcyclohexanecarboxylate hydrochloride] |  |  |  | 
11 | 130 |  | 100 | 240 | Cc1cc(OC(=O)[C@H]2CC[C@H](CNC(=N)N)CC2)c(C(C)C)cc1Cl [Compound 14, 2'-iso-Propyl-4'-chloro-5'-methylphenyl trans-4-guanidinomethylcyclohexanecarboxylate hydrochloride] | 38.8 |  |  | IC50 (Trypsin): 190 µM; IC50 (Plasmin): 400 µM
12 |  |  |  |  | N=C(N)NC[C@H]1CC[C@H](C(=O)Oc2ccc(I)cc2)CC1 [Compound 7, 4'-Iodophenyl trans-4-guanidinomethylcyclohexanecarboxylate hydrochloride] | 18.4 |  |  | 
13 |  |  |  |  | N=C(N)NC[C@H]1CC[C@H](C(=O)Oc2ccc3ccccc3c2[N+](=O)[O-])CC1 [Compound 29, 2'-(1'-Nitro)naphthyl trans-4-guanidinomethylcyclohexanecarboxylate hydrochloride] | 20.6 |  |  | inhibition at 25 µg/mL (guinea pigs ilea [4]): 52%; inhibition at 50 µg/mL (guinea pigs ilea [4]): 80%
14 |  |  |  |  | N=C(N)NC[C@H]1CC[C@H](C(=O)Oc2ccc3c(c2)CCC3)CC1 [Compound 23, 5'-Indanyl trans-4-guanidinomethylcyclohexanecarboxylate hydrochloride] | 12.7 |  |  | 
15 |  |  |  |  | N=C(N)NC[C@H]1CC[C@H](C(=O)Oc2ccc(Cl)c3ccccc23)CC1 [Compound 28, 4'-Chloronaphthyl trans-4-guanidinomethylcyclohexanecarboxylate hydrochloride] | 60.9 | 99.7 | 100 | inhibition at 25 µg/mL [2]: 80%; inhibition at 50 µg/mL [2]: 100%; inhibition at 25 µg/mL (guinea pigs ilea [4]): 68%; inhibition at 50 µg/mL (guinea pigs ilea [4]): 76%
